*1 amine or outer side, *2 acyl side, *3 side chain or, on linkers, in order; H or OH if unused. Where a SMILES comes first, the peptide text is derived from it. Bridges are numbered along the chain shown (N, C = ends). Roman numbers before positions name the chains, in order. [ ]: non-standard residue; d: D form. Actinocin(9to1) = Cc1c2oc3c(C)ccc(C(=O)[*:1])c3nc-2c(C(=O)[*:2])c(N)c1=O; NMeV = CN[C@H](C(=O)O)C(C)C; Sar = CNCC(=O)O
How the values were obtained:
[1] = In vivo toxicity of prodrug in mice; settings: for deaths: dose 10 mg/kg i.p., groups of 3 mice, 10 mg/kg
Protocol: The actinomycin D prodrug (AMDPD) of formula V was tested for toxicity in mice. Groups of 3 mice were given 1, 10 or 100 mg/kg body weight i.p. of AMPD, and two further groups of 3 mice were given 1 and 10 mg/kg body weight i.p. of actinomycin D (AMD) dissolved in arachis oil. A further group of 3 mice were untreated, and a final group of 3 mice were given arachis oil i.p. only.
The body weight of the mice were monitored over 9 days. All mice treated with 10 mg/kg of AMD were dead by day 1. […] In practice, the toxicity of AMDPD is likely to be even lower, since the preparation of AMDPD used contains about 1% unconverted AMD.

[2] = target: T1, E. coli B nitroreductase (Escherichia coli, UniProt P38489); experiment: Enzyme kinetic and inhibition studies; type: biochemical
T1 construct: endogenous in cells; host or cells: E. coli B cell paste; endogenous enzyme purified by Phenyl-Sepharose and Q-Sepharose chromatography, not recombinant
Protocol: Protein concentration was determined using the a conventional protein assay (Bio-Rad) calibrated against bovine serum albumin.

[3] = target: T2, E. coli nitroreductase (Escherichia coli, UniProt P38489); experiment: Substrate specificity: relative rate of NADH oxidation by HPLC (Table 5); type: biochemical; settings: relative to CB 1954; 37° C. in air, NADH 500 μM, substrate 100 μM
T2 construct: endogenous in cells; host or cells: E. coli B cell paste; endogenous enzyme purified by Phenyl-Sepharose and Q-Sepharose chromatography, not recombinant
Protocol: The ability of the E. coli nitroreductase of the invention to reduce nitro-compounds other than CB 1954 was determined by HPLC by following the decrease in the peak area of NADH resulting from its oxidation. The experiments were carried out as above but the aliquots were injected onto a Partisphere SAX (110×4.7 mm) HPLC column and eluted isocratically (1 ml/min) with 75 mM NaH2 PO4.
The relative rates of reduction of various nitrobenzamides and
nitrobenzenes with E. coli nitroreductase enzyme. Reduction
rates were determined by the resulting oxidation of NADH. All
reactions were carried out at 37° C. in air, with NADH (500
electron donor, at an initial substrate concentration of 100 μM.

[4] = target: T2, E. coli nitroreductase; experiment: % drug reduction in the V79 incubations, remaining prodrug by HPLC (Table 8); type: biochemical
Protocol: (§1) Generation of cytotoxicity by the action of the E. coli nitroreductase of Example 1 upon the prodrugs 4-[bis(2-chloroethyl)amino]phenylcarbamic acid 4'-nitrobenzyl ester (I where R^1 NH2 =III) and N-4-nitrobenzyloxy-carbonyl-actinomycin D (V) are shown in Table 8.
(§2) The effect of enzyme-activated prodrugs on the survival of V79
(§3) cells. 1 ml volumes of V79 cells (2 × 10^5 /ml) were incubated
(§4) with prodrug, 500 μM NADH, and 10 μg/ml enzyme. After a 2 hour
(§5) incubation at 37° C., the cells were harvested and assayed for
(§6) their colony forming ability, and the supernatant assayed for
(§7) the concentration of remaining prodrug by HPLC.

[5] = tested on: MAWI cells; experiment: Survival (colony forming ability) of MAWI cells with enzyme-activated prodrugs (Table 7); type: cell-based, human
Protocol: (§8) The effect of enzyme-activated prodrugs on the survival of MAWI
(§9) cells. 1 ml volumes of MAWI cells (2 × 10^5 /ml) were
(§10) with 50 μM prodrug, 500 μM NADH, and 10 μg/ml the enzyme of
(§11) Example 1. After a 2 hour incubation at 37° C., the cells were
(§12) harvested and assayed for their colony forming ability, and the
(§13) supernatant assayed for the concentration of remaining prodrug

[6] = tested on: V79 cells; experiment: Survival (colony forming ability) of V79 cells with enzyme-activated prodrugs (Table 8); type: cell-based
Protocol: as §1, §2, §3, §4, §5, §6, §7

[7] = target: T1, E. coli B nitroreductase; experiment: % drug reduction in the MAWI incubations, remaining prodrug by HPLC (Table 7); type: biochemical
Protocol: as §8, §9, §10, §11, §12, §13

[8] = tested on: NC(=O)c1cc(N2CC2)c([N+](=O)[O-])cc1[N+](=O)[O-]; experiment: Enzyme kinetic and inhibition studies; type: biochemical, E. coli B
[9] = tested on: CC1=CC(=O)c2ccccc2C1=O; experiment: Enzyme kinetic and inhibition studies; type: biochemical, E. coli B
[10] = substrate: CC1=CC(=O)c2ccccc2C1=O; experiment: Enzyme kinetic studies; type: biochemical
Protocol: (§14) Quinone reductase activities were assayed by a spectrophotometric method using menadione as a substrate and cytochrome c as a terminal electron acceptor as described in Knox et al, Biochem. Pharmacol., 37, 4671-4677, 1988. Initial rates of reaction were determined by linear regression analysis (r>0.995) and kinetic parameters determined from the resulting plots as described by Roberts et al, Biochem. Pharmacol. 38, 4137-4143, 1989. Protein concentration was determined using the a conventional protein assay (Bio-Rad) calibrated against bovine serum albumin.
(§15) Kinetic parameters for the E. coli nitroreductase and Walker NAD(P)H, dehydrogenase (quinone) EC. […] The absolute rates of reduction of CB 1954 (i.e. under saturating conditions) by the two enzymes is their kcat values and this is 90 fold higher for the E. coli nitroreductase.

[11] = substrate: NC(=O)c1cc(N2CC2)c([N+](=O)[O-])cc1[N+](=O)[O-]; experiment: Enzyme kinetic studies; type: biochemical
Protocol: as §14, §15

[12] = tested on: V79 cells; experiment: Survival (colony-forming ability) of V79 cells treated with CB 1954 in the presence of E. coli B nitroreductase (Table 4); type: cell-based, Hamster; settings: nitroreductase 2 μg/ml
Protocol: E. coli B nitroreductase. All treatments were for 2 hours at 37°
cells were then plated out for their resulting colony-forming ability.
nitroreductase concentration was 2 μg/ml and NADH was used as a […]

[13] = NR + prodrug + NADH, prodrug concentration not given
[14] = NR 10 μg/ml + 50 μM prodrug + 500 μM NADH

Molecule: Cc1c2oc3c(C)ccc(C(=O)N[C@@H]4C(=O)N[C@H](C(C)C)C(=O)N5CCC[C@H]5C(=O)N(C)CC(=O)N(C)[C@@H](C(C)C)C(=O)O[C@@H]4C)c3nc-2c(C(=O)N[C@@H]2C(=O)N[C@H](C(C)C)C(=O)N3CCC[C@H]3C(=O)N(C)CC(=O)N(C)[C@@H](C(C)C)C(=O)O[C@@H]2C)c(N)c1=O [AMD, actinomycin D] (I: T[dV]P[Sar][NMeV] / II: T[dV]P[Sar][NMeV]; ester I:1-I:C, II:1-II:C; linker I:N-II:N via Actinocin(9to1))
- Weight as % of Day 0, Day 2 ([1]; dose 1.0 mg/kg i.p., mice): 98.6%
- Weight as % of Day 0, Day 3 ([1]; dose 1.0 mg/kg i.p., mice): 95%
- Weight as % of Day 0, Day 7 ([1]; dose 1.0 mg/kg i.p., mice): 101.6%
- Weight as % of Day 0, Day 9 ([1]; dose 1.0 mg/kg i.p., mice): 103%
- deaths [1]: dead by day 1
- deaths ([1]; listed as Active Drug): All dead on day 1

Molecule: CC1=CC(=O)c2ccccc2C1=O [MENADIONE, menadione]
- Km of nitroreductase for menadione higher than Walker enzyme [2]: 60 fold

Molecule: NC(=O)c1cc(N2CC2)c([N+](=O)[O-])cc1N [2-amino-5-(aziridin-1-yl)-4-nitrobenzamide]
- RELATIVE RATE OF NADH OXIDATION NR [3]: < 0.01

Molecule: NC(=O)c1ccc([N+](=O)[O-])cc1 [4-nitrobenzamide]
- RELATIVE RATE OF NADH OXIDATION NR [3]: 5.1

Molecule: NC(=O)c1cccc([N+](=O)[O-])c1 [3-nitrobenzamide]
- RELATIVE RATE OF NADH OXIDATION NR [3]: 1.8

Molecule: CN(C)C(=O)c1cc(N2CC2)c([N+](=O)[O-])cc1[N+](=O)[O-] [CB 10-107]
- % DRUG REDUCTION [4, 13]: 45%
- % SURVIVAL ([5]; 50 μM prodrug alone, 2 hour 37° C.): 85.6%
- % SURVIVAL ([5]; NADH + prodrug, no enzyme): 87.9%
- % SURVIVAL [5, 14]: 5.0%
- % SURVIVAL [6, 13]: 5.0%
- % DRUG REDUCTION ([7]; 50 μM prodrug alone): < 1.0%
- % DRUG REDUCTION ([7]; NADH + prodrug, no enzyme): < 1.0%
- % DRUG REDUCTION [7, 14]: 45%

Molecule: O=[N+]([O-])c1ccc(O)c([N+](=O)[O-])c1 [2,4-dinitrophenol]
- RELATIVE RATE OF NADH OXIDATION NR [3]: < 0.01

Molecule: NC(=O)c1cc(Cl)c([N+](=O)[O-])cc1[N+](=O)[O-] [5-chloro-2,4-dinitrobenzamide]
- RELATIVE RATE OF NADH OXIDATION NR [3]: 22.4

Molecule: E. coli B nitroreductase (Escherichia coli K-12)
- Km [8]: 862 ± 145 µM
- Km [9]: 80 µM

Molecule: NC(=O)c1ccccc1[N+](=O)[O-] [2-nitrobenzamide]
- RELATIVE RATE OF NADH OXIDATION NR [3]: 0.06

Molecule: NC(=O)c1cc([N+](=O)[O-])cc([N+](=O)[O-])c1 [3,5-dinitrobenzamide]
- RELATIVE RATE OF NADH OXIDATION NR [3]: 75.5

Molecule: O=C(Nc1ccc(N(CCCl)CCCl)cc1)OCc1ccc([N+](=O)[O-])cc1 [I where R^1 NH2 = III, 4-[Bis(2-chloroethyl)amino]phenylcarbamic acid 4'-nitrobenzyl ester]
- % DRUG REDUCTION ([4]; 50 μM prodrug alone): < 1.0%
- % DRUG REDUCTION [4, 14]: 30%
- % SURVIVAL ([6]; 50 μM prodrug alone): 27.1%

Molecule: NC(=O)c1cc(NCCO)c([N+](=O)[O-])cc1[N+](=O)[O-] [2,4-dinitro-5-(2-hydroxyethylamino)benzamide]
- RELATIVE RATE OF NADH OXIDATION NR [3]: 0.04

Molecule: NC(=O)NN=Cc1ccc([N+](=O)[O-])o1 [5-nitro-2-furaldehydesemicarbazone]
- RELATIVE RATE OF NADH OXIDATION NR [3]: 3.6

B1: Walker NAD(P)H dehydrogenase (quinone) EC. 1.6.99.2 (Rattus norvegicus) (protein)
chain: AVRRALIVLAHAERTSFNYAMKEAAVEALKKKGWEVVESDLYAMNFNPLISRNDITGEPKDSENFQYPVESSLAYKEGRLSPDIVAEQKKLEAADLVIFQFPLYWFGVPAILKGWFERVLVAGFAYTYATMYDKGPFQNKKTLLSITTGGSGSMYSLQGVHGDMNVILWPIQSGILRFCGFQVLEPQLVYSIGHTPPDARVQVLEGWKKRLETVWEESPLYFAPSSLFDLNFQAGFLLKKEVQEEQKKNKFGLSVGHHLGKSIPADNQIKARK
notes: the enzyme isolated from the Walker tumour, EC.1.6.99.2; from tissue; host or cells: Walker tumour (Walker cell)
- Km [10]: 1.3 µM
- Km [11]: 826 ± 46 µM

B2: Nitroreductase (NR): flavoprotein nitroreductase isolated from E. coli B, molecular weight 24 kDa, FMN coenzyme (protein, UniProt P38489 1-217, looked up)
Oxygen-insensitive NAD(P)H …: MDIISVALKRHSTKAFDASKKLTPEQAEQIKTLLQYSPSSTNSQPWHFIVASTEEGKARVAKSAAGNYVFNERKMLDASHVVVFCAKTAMDDVWLKLVVDQEDADGRFATPEAKAANDKGRKFFADMHRKDLHDDAEWMAKQVYLNVGNFLLGVAALGLDAVPIEGFDAAILDAEFGLKEKGYTSLVVVPVGHHSVEDFNATLPKSRLPQNITLTEV
- % SURVIVAL [12]: 94%
